In patent US5721208A, “Glycopeptides a process for their preparation and their use” (Hoechst Aktiengesellschaft, priority 1991, dated 1998):

Tests used:
[1] = tested on: Clostridium tetani ATCC 1940650; conditions: Agar dilution method
Strept. pyogenes 77 A = assay: Minimum bacteriostatic inhibitory concentration, Agar dilution method; assay type: cell-based
[2] = tested on: Clostridium perfringens 194; conditions: Agar dilution method
Staph. aureus 285 = assay: Minimum bacteriostatic inhibitory concentration, Agar dilution method; assay type: cell-based
Escherichia coli DC 2 = assay: as above; assay type: cell-based
Strept. faecium D = assay: as above; assay type: cell-based
Strept. pyogenes 308 A = assay: as above; assay type: cell-based
Staph. aureus SG 511 = assay: as above; assay type: cell-based
Bact. fragilis 1313 = assay: as above; assay type: cell-based
Staph. aureus 503 = assay: as above; assay type: cell-based
Bact. fragilis 960 = assay: as above; assay type: cell-based
Bact. fragilis 312 = assay: as above; assay type: cell-based
[3] = tested on: Peptostrept. anaerob. 932; assay: as above; assay type: cell-based
Propioni acnes 6916 = assay: as above; assay type: cell-based
Propioni acnes 6922 = assay: as above; assay type: cell-based
Bact. vulgatus 1446 = assay: as above; assay type: cell-based

Question: Which results are given for `CC1OC(OC2c3ccc(c(Cl)c3)Oc3cc4cc(c3OC3OC(CO)C(O)C(O)C3O)Oc3ccc(cc3Cl)C(O)C(N)C(=O)NC(CC(N)=O)C(=O)NC4C(=O)NC3C(=O)NC2C(=O)NC(C(=O)O)c2cc(O)cc(O)c2-c2cc3ccc2O)CC(C)(N)C1=O` (stereo not shown) [Desmethylleucylbalhimycin, desmethylleucylbalhimycin]?
Answer: Minimum bacteriostatic inhibitory concentration [1]: 50 micrograms per milliliter; Minimum bacteriostatic inhibitory concentration (Strept. pyogenes 77 A): 3 micrograms per milliliter; Minimum bacteriostatic inhibitory concentration [2]: 6 micrograms per milliliter; Minimum bacteriostatic inhibitory concentration (Staph. aureus 285): 6 micrograms per milliliter; Minimum bacteriostatic inhibitory concentration (Escherichia coli DC 2): > 100 micrograms per milliliter; Minimum bacteriostatic inhibitory concentration (Strept. faecium D): 6 micrograms per milliliter; Minimum bacteriostatic inhibitory concentration (Strept. pyogenes 308 A): 12.5 micrograms per milliliter; Minimum bacteriostatic inhibitory concentration (Staph. aureus SG 511): 3 micrograms per milliliter; Minimum bacteriostatic inhibitory concentration (Bact. fragilis 1313): 100 micrograms per milliliter; Minimum bacteriostatic inhibitory concentration (Staph. aureus 503): 6 micrograms per milliliter; Minimum bacteriostatic inhibitory concentration (Bact. fragilis 960): 50 micrograms per milliliter; Minimum bacteriostatic inhibitory concentration (Bact. fragilis 312): 50 micrograms per milliliter; Minimum bacteriostatic inhibitory concentration [3]: 50 micrograms per milliliter; Minimum bacteriostatic inhibitory concentration (Propioni acnes 6916): 6 micrograms per milliliter; Minimum bacteriostatic inhibitory concentration (Propioni acnes 6922): 6 micrograms per milliliter; Minimum bacteriostatic inhibitory concentration (Bact. vulgatus 1446): 100 micrograms per milliliter
